Assay results as given in ChEMBL document CHEMBL1201862, “PubChem BioAssay data set” (2004).
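All cell lines were grown in 96-well plates and treated with compound for 48 hours. Abbreviation: GI50, concentration required for 50% inhibition of growth.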 Active and inactive are the calls of the source. Rule as the data show it: active = GI50 up to about 1.1 µM and inactive = higher.

Assays:
Experiment in all cases: DTP human tumour cell line panel, 48 h
[1] = system: CAKI-1
[2] = system: SR
[3] = system: U-251
[4] = system: DU-145
[5] = system: RXF 393
[6] = system: MOLT-4
[7] = system: NCI-H226
[8] = system: HT-29
[9] = system: EKVX
[10] = system: UACC-62
[11] = system: SNB-19
[12] = system: NCI/ADR-RES
[13] = system: T47D
[14] = system: MDA-MB-435
[15] = system: SK-MEL-2
[16] = system: OVCAR-5
[17] = system: LOX IMVI
[18] = system: HCT-15
[19] = system: HCC 2998
[20] = system: CCRF-CEM

| Compound | GI50 [1] | GI50 [2] | GI50 [3] | GI50 [4] | GI50 [5] | GI50 [6] | GI50 [7] | GI50 [8] | GI50 [9] | GI50 [10] | GI50 [11] | GI50 [12] | GI50 [13] | GI50 [14] | GI50 [15] | GI50 [16] | GI50 [17] | GI50 [18] [µM] | GI50 [19] | GI50 [20] |
| --- | --- | --- | --- | --- | --- | --- | --- | --- | --- | --- | --- | --- | --- | --- | --- | --- | --- | --- | --- | --- |
| CCC(C(=O)c1cccs1)C(O)(C(F)(F)F)C(F)(F)F (stereo not drawn) | > 100 µM (inactive) | > 100 µM (inactive) | > 100 µM (inactive) | > 100 µM (inactive) | > 100 µM (inactive) | > 100 µM (inactive) | > 100 µM (inactive) | > 100 µM (inactive) | > 100 µM (inactive) | > 100 µM (inactive) | > 100 µM (inactive) | > 100 µM (inactive) | > 100 µM (inactive) | > 100 µM (inactive) | > 100 µM (inactive) | > 100 µM (inactive) | > 100 µM (inactive) | > 100 |  |  |
| Cn1c2ccccc2c2c3c(c4c5ccccc5n(C)c4c21)C(=O)N(c1ccccc1)C3=O | > 100 µM (inactive) | > 100 µM (inactive) | > 100 µM (inactive) | > 100 µM (inactive) |  | > 100 µM (inactive) | > 100 µM (inactive) | > 100 µM (inactive) | > 100 µM (inactive) | > 100 µM (inactive) | > 100 µM (inactive) | > 100 µM (inactive) | > 100 µM (inactive) | > 100 µM (inactive) | > 100 µM (inactive) | > 100 µM (inactive) | > 100 µM (inactive) | > 100 | > 100 µM (inactive) | > 100 µM (inactive) |
| O=C1OC2c3ccccc3C(=O)C2(c2ccccc2)N1c1ccccc1 (stereo not drawn) | 121 µM (inactive) |  | > 200 µM (inactive) | > 200 µM (inactive) | > 200 µM (inactive) | 186 µM (inactive) | > 200 µM (inactive) | > 200 µM (inactive) | > 200 µM (inactive) | > 200 µM (inactive) | > 200 µM (inactive) | > 200 µM (inactive) | 174 µM (inactive) | > 200 µM (inactive) | > 200 µM (inactive) | > 200 µM (inactive) | > 200 µM (inactive) | > 200 | > 200 µM (inactive) | 128 µM (inactive) |
| CC[C@]12C=CCN3CC[C@@]4(c5cc(Br)c(OC)cc5N(C)[C@H]4[C@@](O)(C(=O)NC(Cc4c[nH]c5ccccc45)C(=O)OC)[C@@H]1O)[C@@H]32 (stereo partly drawn) | 86.1 µM (inactive) | 4.33 µM (inactive) | 5.04 µM (inactive) | 35.2 µM (inactive) | 19.1 µM (inactive) | 2.87 µM (inactive) | 10.8 µM (inactive) | 7.89 µM (inactive) | 18.4 µM (inactive) | 24.3 µM (inactive) | 33.2 µM (inactive) | 7.91 µM (inactive) | 5.2 µM (inactive) | 26.2 µM (inactive) | 25.2 µM (inactive) | 71.4 µM (inactive) | 4.6 µM (inactive) | 5.74 |  | 5.62 µM (inactive) |
| CC(C)(OCc1ccccc1)c1ccccc1P(c1ccccc1)c1ccccc1 | 31.7 µM (inactive) | 34.8 µM (inactive) | 27.9 µM (inactive) | 82.6 µM (inactive) | > 100 µM (inactive) | 17.2 µM (inactive) | 69.2 µM (inactive) | 30.1 µM (inactive) | 32.9 µM (inactive) | 47.5 µM (inactive) | 69 µM (inactive) | 50.7 µM (inactive) | 28.4 µM (inactive) | 37.9 µM (inactive) | 73.5 µM (inactive) | > 100 µM (inactive) |  | 36.4 |  |  |
| O[C@@]1(c2cccs2)c2cccc(Cl)c2[C@](O)(c2cccs2)c2cccc(Cl)c21 | 24.4 µM (inactive) |  | 16.8 µM (inactive) | 24.7 µM (inactive) | 16.3 µM (inactive) | 15.9 µM (inactive) | 22.1 µM (inactive) | 17.2 µM (inactive) | 16.8 µM (inactive) | 11 µM (inactive) | 26.7 µM (inactive) | 22.6 µM (inactive) | 32.9 µM (inactive) | 17.2 µM (inactive) | 18.2 µM (inactive) | 16.2 µM (inactive) | 16.4 µM (inactive) | 21.2 | 17.6 µM (inactive) | 33.3 µM (inactive) |
| C=C(C)[C@@H]1CC[C@]2(C(=O)OC)CC[C@]3(C)[C@H](CC[C@@H]4[C@@]5(C)CC[C@H](O)C(C)(C)[C@@H]5CC[C@]43C)[C@@H]12 [METHYL BETULINATE] | 20.8 µM (inactive) | 32.3 µM (inactive) | 17.8 µM (inactive) | 39.8 µM (inactive) | 14.5 µM (inactive) | 18.8 µM (inactive) | 20 µM (inactive) | 20.5 µM (inactive) | 21.7 µM (inactive) |  | 18.7 µM (inactive) | 19 µM (inactive) | 12 µM (inactive) | 21 µM (inactive) |  | 26.8 µM (inactive) | 18.4 µM (inactive) | 20.5 |  | 19.4 µM (inactive) |
